The data set in a line: gradient 5% acetonitrile 3 min, to 50% in 2 min, to 85% in 15 min, held 3 min, 100 µL/min. The following applies: column: Zorbax Extend-C18 2.1 x 50 mm; eluents: water / acetonitrile, 0.1% formic acid. The method in brief:
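The mobile phases were water and acetonitrile, each with 0.1% formic acid, pumped at 100 μL/min through a Zorbax Extend-C18 column (2.1 × 50 mm, 1.8 μm). Pure standards were injected as mixtures of ~100 molecules and detected by a quadrupole time-of-flight mass spectrometer in positive and negative ionization mode. Retention time came from computationally picked adduct peaks, each inspected by hand.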
Regarding `COc1ccccc1-c1nc(Cn2nnc(-c3nc(-c4ccc(C)cc4)no3)c2C)c(C)o1`, the RP-LC retention time amounted to 1170 s.

The molecule `Cc1cccn2cc(-c3ccc(NC(=O)c4ncccn4)cc3)nc12` had an RP-LC retention time of 680 s.

For `Cc1ccc(-c2[nH]ncc2CN)cc1C`, the RP-LC retention time is 586 s.

The molecule `CCOC(=O)c1[nH]c(C)c(CCC(=O)N2CCCC(C(=O)NC3CCCC3)C2)c1C` (configuration not stated) registered an RP-LC retention time of 746 s.

`CCn1ccc2sc(C)c(C(=O)N3CCCCC3)c2c1=O`: the RP-LC retention time worked out at 684 s.

The molecule `CC(C)CN1C(=O)c2cccn2CC1C(=O)NCCCOC(C)C` (configuration not stated) yielded an RP-LC retention time of 718 s.

Take `O=C(CN1CCC2(CC1)N=C(c1cccc(F)c1)C(=O)N2)Nc1ccc(Br)cc1F`: the RP-LC retention time is 711 s.

Molecule `CCCNC(=O)C1CCN(c2ccc(SCC(=O)Nc3ccc(Br)cc3)nn2)CC1` gave an RP-LC retention time of 689 s.

`O=C(Cn1nc2c(N3CCCCCC3)nccn2c1=O)Nc1cccc(Cl)c1F`: the RP-LC retention time worked out at 750 s.

For `CCCNC(=O)N1CCC2(CCCCO2)CC1`, the RP-LC retention time was 602 s.

As to `Cc1sc(-c2nc(C(C)C)cs2)cc1S(=O)(=O)NCc1ccccc1`, the RP-LC retention time stood at 1190 s.

Take `O=C(NCC1CCCO1)c1ccc2ncnc(N3CCCCC3)c2c1` (configuration not stated): the RP-LC retention time was 594 s.

In turn, `COc1cc(-c2nc3ccc(C)cn3c2Nc2ccccc2C)ccc1O` yielded an RP-LC retention time of 661 s.

The molecule `Cc1nn(C)cc1S(=O)(=O)Nc1nc2ccc(S(C)(=O)=O)cc2s1` gave an RP-LC retention time of 581 s.

Turning to `CN1C(=O)CO[C@@H](C(=O)N2CCN(c3ccccc3)CC2)[C@@H]1c1ccccc1`, the RP-LC retention time stood at 796 s.

Molecule `CCOC(=O)c1ccc(NC(=O)c2ccc3c(c2)N(CC)C2CCCCN2C3=O)cc1` (configuration not stated) displayed an RP-LC retention time of 957 s.

In turn, `CCn1nccc1-c1cccc(-c2noc(COc3ccc(Cl)cc3)n2)c1` gave an RP-LC retention time of 1200 s.

Molecule `O=c1[nH]cc(S(=O)(=O)N2CCOCC2)c(=O)[nH]1` gave an RP-LC retention time of 546 s.

Molecule `CC(C(=O)N1CC(n2cc(COCC3CC3)nn2)C1)c1ccccc1` (configuration not stated) displayed an RP-LC retention time of 701 s.

In turn, `COC(=O)c1c(NCCC(C)C)c2cc(F)ccc2[nH]c1=O` returned an RP-LC retention time of 792 s.

In turn, `O=C(CCc1nc(-c2ccc(N3CCCC3)cc2)no1)NCCC1=CCCCC1` yielded an RP-LC retention time of 1170 s.

On to `CCOc1ccccc1NC(=O)C(CC)n1cnc2nc3c(cc2c1=O)CCCC3` (configuration not stated), for which the RP-LC retention time was 919 s.

Take `CCN1CCN(c2cc(-c3nc(-c4ccccc4)no3)c3ccccc3n2)CC1`: the RP-LC retention time turned out to be 822 s.

As to `COc1cc(OC)cc(-c2nc(-c3ccc4c(c3)oc(=O)n4C)no2)c1`, the RP-LC retention time stood at 1060 s.

For `CCN1C(=O)c2ccccc2Oc2ccc(C(=O)NCc3ccc(N(C)C)cc3)cc21`, the RP-LC retention time came to 670 s.

`O=C(CCc1csc(NC(=O)c2ccc(=O)[nH]c2)n1)NCc1ccccn1` gave an RP-LC retention time of 542 s.

In the case of `O=C(CCCc1ccccc1)N1CCCC1c1nc(-c2ccccc2Cl)no1` (configuration not stated), the RP-LC retention time amounted to 1140 s.

As for `O=C(Nc1nc2c(s1)CCc1ccccc1-2)Nc1c(F)cccc1F`, the RP-LC retention time was 914 s.

Consider `CN1C(=O)CCSc2ccccc21`, for which the RP-LC retention time is 711 s.

`CN(CCc1noc(-c2ccc(F)cc2)n1)C(=O)COc1ccc(F)cc1` gave an RP-LC retention time of 889 s.

`CCCN1C(=O)COc2cc(-c3noc(C(=O)NC4CC4)n3)ccc21` displayed an RP-LC retention time of 841 s.

In turn, `COc1c(C(=O)NC(C)c2ccccc2)sc2cccc(F)c12` (configuration not stated) gave an RP-LC retention time of 1140 s.

On to `C=CC1=C(C(=O)O)N2C(=O)[C@@H](NC(=O)/C(=N/OCC(=O)O)c3csc(N)n3)[C@H]2SC1`, for which the RP-LC retention time was found to be 644 s.

`COc1ccc(C)cc1NC(=O)C(=O)c1ccc[nH]1` had an RP-LC retention time of 982 s.

Molecule `CCn1c(=O)n(CC)c2cc(NC3=NS(=O)(=O)c4ccccc43)ccc21` gave an RP-LC retention time of 702 s.

As to `CSc1ccc(CNC(=O)C2CCN(c3nnc(-c4ccccc4)o3)CC2)cc1`, the RP-LC retention time worked out at 846 s.

Regarding `O=S(=O)(NC1CCCC1)c1cccc(-c2nc(-c3ccccc3)no2)c1`, the RP-LC retention time worked out at 1170 s.

`CCNC(=O)Nc1ccc2c(c1)CN(Cc1sccc1C)CCO2` showed an RP-LC retention time of 608 s.

For the molecule `Cc1ccc(C(=O)NC2CCN(c3cc(-c4cccs4)[nH]n3)C2)cc1C` (configuration not stated), the RP-LC retention time amounted to 726 s.

`Cc1ccccc1CN1CCN(c2ccccn2)CC1` showed an RP-LC retention time of 566 s.

As for `Cc1c(CN2CCC[C@H]2c2nc(-c3ccccc3)n[nH]2)cnn1C`, the RP-LC retention time is 584 s.

In turn, `Cc1cc(-c2nnc3sc(COc4ccc(F)cc4)nn23)n[nH]1` displayed an RP-LC retention time of 727 s.

As to `Cc1ccc(CN2CC(F)(F)C[C@H]2c2nnc(-c3cnccn3)o2)c(C)c1`, the RP-LC retention time was found to be 990 s.

Take `CCS(=O)(=O)N1CCc2c(c(CN(C(=O)c3ccccc3)c3ccccc3)nn2C)C1`: the RP-LC retention time amounted to 775 s.

As for `CSc1ccccc1C(=O)NCC1CN(c2ccccc2)C(=O)O1` (configuration not stated), the RP-LC retention time worked out at 712 s.

The molecule `CCCNC(=O)C1CCN(c2ccc(SCC(=O)Nc3cc(OC)cc(OC)c3)nn2)CC1` had an RP-LC retention time of 653 s.

`O=C(Cn1nc2c(Oc3cccc(F)c3)nccn2c1=O)Nc1ccccc1F` returned an RP-LC retention time of 815 s.

As to `COC(=O)c1ccccc1NC(=O)NCCn1c(C)nc2ccccc21`, the RP-LC retention time worked out at 630 s.

As for `COc1ccc(S(=O)(=O)NC2CCN(C(=O)Cc3c[nH]c4ccccc34)CC2)cc1`, the RP-LC retention time was 766 s.

Consider `Cc1cc(=O)n(CC(=O)Nc2ccc(Br)cc2)c(N2CCc3ccccc3C2)n1`, for which the RP-LC retention time amounted to 885 s.

Molecule `COc1ccc(-c2ccc(=O)n(CCCNS(=O)(=O)/C=C/c3ccccc3)n2)cc1` gave an RP-LC retention time of 830 s.

In turn, `Cc1cc(=O)n(CC(=O)Nc2ccc(C)c(C)c2)c(N2CCCCC2)n1` registered an RP-LC retention time of 717 s.

Turning to `COc1ccc(NC(=O)N2CCC3(C2)C(=O)N(C)c2ccccc23)cc1` (configuration not stated), the RP-LC retention time came out at 745 s.

The molecule `COc1ccccc1NC(=O)N1CCN(c2cc(C)nc(N3CCCCC3)n2)CC1` yielded an RP-LC retention time of 695 s.

In turn, `O=C(NCc1ccc(F)cc1Cl)C1CCc2nc(N3CCOCC3)ncc2C1` (configuration not stated) gave an RP-LC retention time of 768 s.

The molecule `COc1ccc(C2Cn3cnc(C(=O)N4CCC(C(=O)Nc5cc(C)cc(C)c5)CC4)c3CO2)cc1` (configuration not stated) gave an RP-LC retention time of 751 s.

In turn, `CCCc1nc(-c2cc3ccc(C)cc3nc2NC2CCCC2)no1` showed an RP-LC retention time of 968 s.

`CN1Cc2ccccc2-n2ccnc2C12CCN(C(=O)c1ccc(F)c(F)c1)CC2` displayed an RP-LC retention time of 619 s.

Take `COc1ccc(CNC(=O)Cc2nnc(-c3ccccn3)o2)c(OC)c1`: the RP-LC retention time was 696 s.

Molecule `O=C(c1ccc(F)cc1)N1CCN(c2cnn3c(C4CC4)nnc3c2)CC1` gave an RP-LC retention time of 636 s.

On to `CCc1noc(C2CCCCN2C(=O)CCc2c[nH]c3ccccc23)n1` (configuration not stated), for which the RP-LC retention time came out at 888 s.

In turn, `CC(=O)Nc1cccc(-c2nc(-c3ccc4c(c3)oc(=O)n4C(C)C)no2)c1C` had an RP-LC retention time of 873 s.

The molecule `CN(C)C(=O)c1ccc2c(c1)N(CC(=O)NCCC1=CCCCC1)C(=O)C1CCCCN21` (configuration not stated) had an RP-LC retention time of 830 s.

On to `CCN1c2ccc(C)cc2C(=O)NC12CCN(C(=O)c1ccc(Cl)cc1)CC2`, for which the RP-LC retention time is 858 s.

With `CCc1ccccc1S(=O)(=O)N1CCC(N(C(=O)COC)C2CCOCC2)CC1`, the RP-LC retention time came out at 823 s.

`CC(=O)N1CCc2sc(C(=O)N3CCN(c4ccccn4)CC3)cc2C1` gave an RP-LC retention time of 575 s.

As to `Cc1ccc(CSc2ncnc3nc[nH]c23)cc1`, the RP-LC retention time was found to be 774 s.

Regarding `Cc1nc2c(c(SCC(=O)Nc3nc(-c4ccccc4)cs3)n1)CCC2`, the RP-LC retention time was determined as 982 s.

On to `COc1ccc(Cl)cc1NC(=O)Cn1nc2c(Oc3ccccc3C)nccn2c1=O`, for which the RP-LC retention time was 930 s.

In turn, `O=S(=O)(c1ccc(-c2nnc(C3CC3)o2)o1)N1CCOCC1` registered an RP-LC retention time of 717 s.

For the molecule `O=C(Nc1ccc(Cl)cc1)Nc1cccc2nsnc12`, the RP-LC retention time came out at 1100 s.

`CC(C)n1c(=O)c(NCc2ccc(F)cc2Cl)nc2ccncc21` returned an RP-LC retention time of 686 s.

The molecule `O=C(Nc1nccs1)C1CCN(S(=O)(=O)C2CC2)CC1` showed an RP-LC retention time of 632 s.

As for `COc1ccc(OCc2nn3c(-c4ccoc4C)nnc3s2)cc1`, the RP-LC retention time turned out to be 900 s.

`O=C(Nc1cnc(N2CCCCC2)nc1)c1ccc(F)cc1F` showed an RP-LC retention time of 934 s.

The molecule `CCCC(NCc1ccc2c(c1)n(C)c(=O)n2C)c1ccccc1` (configuration not stated) came in with an RP-LC retention time of 635 s.

The molecule `CCn1cc(C(=O)NCCC2=CCCCC2)c2nn(-c3ccccc3)c(=O)c-2c1` displayed an RP-LC retention time of 1020 s.

Regarding `CCn1cc(-c2nc(C(=O)NCc3ccccc3Cl)cs2)c2cccnc21`, the RP-LC retention time was 1070 s.

`Cc1ccc(CNC(=O)Cn2nc(N3CCCC(C)C3)c3ccccc3c2=O)cc1` (configuration not stated): the RP-LC retention time was 1110 s.

`O=C(CCSc1ccccc1)N1CCN(c2ccc3nnc(-c4ccco4)n3n2)CC1` registered an RP-LC retention time of 703 s.

`COc1ccc(N2CC(c3nc(-c4ccc(C)cc4)no3)CC2=O)cc1Cl` (configuration not stated) came in with an RP-LC retention time of 1050 s.

`Cc1ccc(CNC(=O)Cn2c(C)cc(-c3nnc(-c4ccccc4)o3)c2C)cc1` came in with an RP-LC retention time of 949 s.

The values above are taken from the METLIN SMRT retention time set (Domingo-Almenara et al. 2019).
